From patent EP4725948A1, “PYRROLO[2,3-D]PYRIMIDIN-4-AMINE DERIVATIVE AND USE THEREOF IN MEDICINE” (Haisco Pharmaceutical Group Co., Ltd., priority 2023, dated 2024)

Legend:
[1] = Pharmacokinetic test in rats (inhalation administration); conditions: for Lung AUC0-t / Lung Cmax / Lung AUC0-t/plasma AUC0-t: SD rats, single inhalation dose 0.03 mg/kg; for Lung AUC0-t / Lung Cmax: lung tissue
Procedure: Experimental objective: In this experiment, the test compound was administered as a single dose via inhalation to SD rats, and the concentrations of the test compound in rat plasma and lungs were determined to evaluate the pharmacokinetic characteristics and bioavailability of the test compound in the rats.
Experimental animals: Male SD rats, 180-200 g, purchased from Chengdu Dossy Experimental Animals Co., Ltd.
Experimental method: On the day of the experiment, SD rats were randomly assigned into 6 groups according to body weight (for each compound), with 2 rats in each group. The rats were fasted with water available for 12 to 16 hours one day before the administration, and were fed 4 hours after the administration.
Plasma sampling: before and after the administration, blood was taken from the orbits of the rats under isoflurane anaesthesia, and placed in an EDTAK2 centrifuge tube. Centrifugation was performed at 6000 rpm at 4°C for 10 min, and the plasma was collected.
Lung tissue sampling: Animals from each group were euthanised by CO2 inhalation at 0.25, 0.5, 1, 4, 7 and 24 hours after the administration. Then, the animal was dissected to collect lung tissue, which was rinsed with physiological saline, dried with filter paper, weighed in the balance, kept on wet ice and homogenised within 2 hours using a 6-fold volume (i.e., 6 mL per 1 g of tissue) of homogenisation buffer (50% methanol-water).
Before analysis and detection, all samples were stored at -60°C. The samples were analysed quantitatively by LC-MS/MS.

sGC protein = biological target: T1, sGC protein (Homo sapiens, UniProt Q02108+Q02153); test: cGMP detection experiment in LNCap cells; type: cell-based; conditions: cGMP production in LNCap cells; 20 µM DETA-NO pre-incubation; relative to compound A
T1 construct: LNCap is a human prostate cancer cell line that expresses sGC protein; host or cells: LNCap (human prostate cancer cell line)
T1 sequence (Q02108 1-690): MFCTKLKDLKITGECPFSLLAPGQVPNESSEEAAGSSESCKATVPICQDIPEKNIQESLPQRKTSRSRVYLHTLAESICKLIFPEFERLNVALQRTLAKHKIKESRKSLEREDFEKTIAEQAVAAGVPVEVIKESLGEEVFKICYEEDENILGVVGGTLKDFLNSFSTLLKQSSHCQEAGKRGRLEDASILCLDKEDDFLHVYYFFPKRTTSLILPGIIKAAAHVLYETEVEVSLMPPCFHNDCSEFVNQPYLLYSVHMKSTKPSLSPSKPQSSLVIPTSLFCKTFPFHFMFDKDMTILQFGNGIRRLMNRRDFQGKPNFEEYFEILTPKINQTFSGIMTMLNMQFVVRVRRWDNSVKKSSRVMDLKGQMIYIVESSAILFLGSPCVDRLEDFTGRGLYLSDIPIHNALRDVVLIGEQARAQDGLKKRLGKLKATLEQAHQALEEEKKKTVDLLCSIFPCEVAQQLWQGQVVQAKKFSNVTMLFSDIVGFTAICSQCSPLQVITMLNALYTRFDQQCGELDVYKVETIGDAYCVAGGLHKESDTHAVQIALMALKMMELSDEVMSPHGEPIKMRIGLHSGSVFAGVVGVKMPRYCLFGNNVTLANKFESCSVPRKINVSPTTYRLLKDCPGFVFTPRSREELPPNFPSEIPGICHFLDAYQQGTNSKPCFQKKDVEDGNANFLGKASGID
T1 sequence (Q02153 1-619): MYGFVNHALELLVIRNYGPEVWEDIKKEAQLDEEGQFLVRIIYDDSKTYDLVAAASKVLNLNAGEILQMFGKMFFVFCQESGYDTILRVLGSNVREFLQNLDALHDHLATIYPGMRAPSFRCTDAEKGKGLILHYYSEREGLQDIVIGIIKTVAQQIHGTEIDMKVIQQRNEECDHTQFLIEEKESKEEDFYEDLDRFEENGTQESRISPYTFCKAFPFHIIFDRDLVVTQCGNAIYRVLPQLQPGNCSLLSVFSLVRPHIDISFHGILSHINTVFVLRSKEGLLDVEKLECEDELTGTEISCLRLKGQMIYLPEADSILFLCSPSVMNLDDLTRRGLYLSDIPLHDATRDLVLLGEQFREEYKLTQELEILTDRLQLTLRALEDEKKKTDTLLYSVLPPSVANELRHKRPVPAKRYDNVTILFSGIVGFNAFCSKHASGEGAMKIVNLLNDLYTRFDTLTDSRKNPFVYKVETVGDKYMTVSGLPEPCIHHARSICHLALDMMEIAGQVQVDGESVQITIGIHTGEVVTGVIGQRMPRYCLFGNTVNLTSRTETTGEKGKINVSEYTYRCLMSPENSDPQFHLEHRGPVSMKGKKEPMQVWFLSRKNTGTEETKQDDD
Procedure: LNCap is a human prostate cancer cell line that expresses sGC protein. […] On the day of the detection, the cells were reselected in assay buffer (EBSS assay buffer+[…] of MgCl2+10 mM HEPES+0.05% BSA) at a density of 2 × 10^5/mL. 0.5 mM IBMX was added to prevent cGMP degradation.
The cells were pre-incubated with 20 µM diethylenetriamine/nitric oxide (DETA-NO) at 37°C for 30 minutes, and then different concentrations of the compounds were added. The mixture was further incubated at room temperature for 1 h. After the incubation was completed, the reaction was terminated, and intracellular cGMP levels were measured according to the instructions for the CisBio kit (Cisbio, 62GM2PEC).

[2] = biological target: T2, soluble guanylate cyclase (sGC) (Homo sapiens, UniProt Q02108+Q02153); test: In vitro detection experiment for soluble guanylate cyclase (sGC) activity (TR-FRET);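 also: enzyme reaction started with GTP and run for 60 min at 37°C, followed by a 60 min detection step at room temperature, with EC50 obtained by nonlinear curve fitting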
T2 sequence (Q02108 1-690): T1 sequence (Q02108 1-690)
T2 sequence (Q02153 1-619): T1 sequence (Q02153 1-619)
Procedure: First, 100 nL of the compounds at different concentrations were transferred to a 384-well reaction plate (Greiner, Cat. No. 784075) using Echo 655 (LABCYTE, Cat # 655), with the final DMSO concentration of 1% in the reaction mixture; 2 µL of sGC (ICE, Cat. No. S2304F-H07SH2) was added to a 384-well reaction plate, and the mixture was centrifuged at 1000 rpm for 1 min; and then 1 µL of DETA NONOate was added, and the mixture was incubated at 37°C for10 min. After the incubation was completed, 2 µL of GTP was added, and the mixture was centrifuged at 1000 rpm for 1 min and reacted at 37°C for 60 min. In the reaction system, the final concentrations of sGC, GTP, and DETA NONOate were 1.5 nM, 5 µM, and 100 µM, respectively. After the reaction was completed, 5 µL of the test mixture (PerkinElmer, Cat. No. 62GM2PEG) was added and incubated at room temperature for 60 min. The TR-FRET signal (Ratio: 665/620 nm) was read using a microplate reader (BMG, Cat. No. PHERAstar FSX). A nonlinear regression curve was fitted using GraphPad Prism software, and EC50 values were calculated. Compound A (Example 1 in WO 2010065275) was used as a positive reference compound.

[3] = AE frequency, riociguat group, cited from earlier work
[4] = 12-week PATENT-1 study (placebo 2%)

Compound	Lung AUC0-t [1]	Lung Cmax [1]	EC50 (sGC protein)	Lung AUC0-t/plasma AUC0-t [1]	further results
CC(C)(Cc1csc(C2(C)C(=O)Nc3nc(-n4nc(Cc5ccccc5F)c5ncc(F)cc54)nc(N)c32)n1)C(=O)O (single isomer, unassigned) [Compound 35-1]	5432 ng·h/mL	2545 ng/mL	< 500 nM		
CC(C)(Cc1csc(C2(C)C(=O)Nc3nc(-n4nc(Cc5ccccc5F)c5c(F)cccc54)nc(N)c32)n1)C(=O)O (single isomer, unassigned) [Compound 41-1]			< 500 nM		
CC(C)(Cc1coc(C2(C)C(=O)Nc3nc(-n4c(=O)n(CC5CCCCC5)c5c(F)cccc54)nc(N)c32)n1)C(=O)O (centres unmarked) [Trifluoroacetate of compound 27]			< 500 nM		EC50 [2]: < 20 nM
COC(=O)N(C)c1c(N)nc(-c2nn(Cc3ccccc3F)c3ncccc23)nc1N [riociguat, Riociguat]					constipation ([3]; 12-week PATENT-1 study (placebo 1%)): 5%; anaemia [3, 4]: 7%; gastrooesophageal reflux disease [3, 4]: 5%; hypotension ([3]; 12-week PATENT-1 study (placebo 4%)): 10%; vomiting ([3]; 12-week PATENT-1 study (placebo 7%)): 10%; diarrhoea ([3]; 12-week PATENT-1 study (placebo 8%)): 12%; dizziness ([3]; 12-week PATENT-1 study (placebo 13%)): 20%
CC(C)(Cc1csc([C@]2(C)C(=O)Nc3nc(-n4c(=O)n(Cc5ccccc5F)c5cc(F)ccc54)nc(N)c32)n1)C(=O)O [Compound 38-1]		1743 ng/mL		83.6	
CC(C)(Cc1csc([C@]2(C)C(=O)Nc3nc(-n4nc(CCC(F)(F)C(F)(F)F)c5cc(F)ccc54)nc(N)c32)n1)C(=O)O [Compound 17-1]	2021 ng·h/mL	1754 ng/mL	< 500 nM	48.4	
CC(C)(Cc1csc(C2(C)C(=O)Nc3nc(-n4nc(CCC(F)(F)C(F)(F)F)c5cc(Cl)ccc54)nc(N)c32)n1)C(=O)O (single isomer, unassigned) [Compound 4-1]	2462 ng·h/mL	2352 ng/mL	< 500 nM	77.1	
CC(C)(Cc1csc([C@]2(C)C(=O)Nc3nc(-c4nc(CCC(F)(F)C(F)(F)F)n5cc(F)ccc45)nc(N)c32)n1)C(=O)O [Compound 45-1]	4500 ng·h/mL	2846 ng/mL		43.4	

Continued, in another order:

Lung AUC0-t [1]	Lung Cmax [1]	EC50 (sGC protein)	Lung AUC0-t/plasma AUC0-t [1]	Compound	further results
220 ng·h/mL	273 ng/mL	3220 nM		CC(C)(Cc1csc([C@]2(C)C(=O)Nc3nc(-c4nn(CCC(F)(F)C(F)(F)F)c5ncccc45)nc(N)c32)n1)C(=O)O [Control compound 1, reference compound]	Kp ([1]; male, SD, rat, lung and plasma, inhaled or intranasal, 0.03 mg/kg): 29.1
		< 500 nM		CC(C)(Cc1csc(C2(C)C(=O)Nc3nc(-n4nc(CCC(F)(F)C(F)(F)F)c5c(F)cccc54)nc(N)c32)n1)C(=O)O (single isomer, unassigned) [Compound 43-1]	
608 ng·h/mL	1183 ng/mL	< 500 nM	97.9	CC(C)(Cc1csc([C@]2(C)C(=O)Nc3nc(-n4c(=O)n(CCC(F)(F)C(F)(F)F)c5cc(F)ccc54)nc(N)c32)n1)C(=O)O [Compound 31-1]	
		< 500 nM		CC(C)(Cc1csc(C2(C)C(=O)Nc3nc(-n4c(=O)n(Cc5ccccc5F)c5c(F)cccc54)nc(N)c32)n1)C(=O)O (single isomer, unassigned) [Compound 15-1]	
		< 500 nM		CC(C)(Cc1csc(C2(C)C(=O)Nc3nc(-n4nc(Cc5ccccc5F)c5cc(Cl)ccc54)nc(N)c32)n1)C(=O)O (single isomer, unassigned) [Compound 32-1]	
		< 500 nM		CC(C)(Cc1csc([C@]2(C)C(=O)Nc3nc(-n4c(=O)n(CCC(F)(F)C(F)(F)F)c5c(F)cccc54)nc(N)c32)n1)C(=O)O [Compound 14-1]	
